# According to patent US20080008754A1, “Pharmaceutical Compositions Comprising (+)-(2S,3S)-2-(3-Chlorophenyl)-3,5,5-Trimethyl-2-Morpholinol” (SMITHKLINE BEECHAM CORPORATION, priority 2004, published 2008):
# Test: Solubility in an acidic environment
# Format: physicochemical
# Details: aqueous buffer
structure (smiles),measurement,value
"C[C@@H]1NC(C)(C)CO[C@@]1(O)c1cccc(Cl)c1 [compound of formula (I), (+)-(2S,3S)-2-(3-chlorophenyl)-3,5,5-trimethyl-2-morpholinol]",solubility,~150 mg/mL
